Test results published in US20080292584A1 (priority 2005, published 2008).
Several values for one entry are separate records, joined by “and”; a condition that tells them apart may be missing. Equal entries are not always repeated.

Columns and labels:
[1] = test system: CYP2A6; experiment: Induction/inhibition of CYP2A6 activity in cryopreserved human hepatocytes (coumarin); assay type: in vitro ADME
From the text: (§1) Hepatocytes from three human donors were obtained from a cryopreserved hepatocyte bank (In Vitro Technologies, Inc., USA). After thawing, viable hepatocytes were transferred to collagen-coated 48-well plates for attachment in plating medium (DMEM stock (Dulbecco's modified Eagle's medium, supplemented with bovine serum albumin, fructose, N-(2-hydroxyethyl)piperazine-N′-(2-ethanesulfonate) (HEPES), and sodium bicarbonate), supplemented with antibiotics, bovine serum, hydrocortisone, insulin and minimum essential medium (MEM) nonessential amino acids). After attachment to the collagen matrix, plating medium was replaced with sandwich medium (plating medium supplemented with VITROGEN) and incubated until use.
(§2) The supplemented KHB was replaced with 150 μL supplemented KHB containing the appropriate isoform-selective substrate and incubated for 4 hrs prior to termination by adding 150 μL ice-cold methanol, except for the CYP2C8 incubations which were terminated by adding 150 μL acetonitrile.
(§3) All substrates were dissolved in acetonitrile.
(§4) Replicate trials and controls were performed. […] Additionally, reference control samples were included to evaluate inducibility of CYP2B6, CYP2C9, and CYP2C19 in the test system.
(§5) Mean specific activity values with associated p-values≦0.05 were deemed to be statistically significant.

[2] = biological target: CYP2D6 (Homo sapiens, UniProt P10635); experiment: Metabolism of metaxalone by expressed recombinant human CYP2D6 (Example 1); conditions: 30 min;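 note: reactions in 0.5 mL were started by adding an NADPH regenerating system after 5 min preincubation, with background signal estimated from controls containing only matrix components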
Experimental: (§6) Commercially available microsomes from baculovirus-infected insect cells containing singly-expressed recombinant wild-type (*1 allele) human CYP enzymes and cDNA-expressed human cytochrome p450 oxidoreductase [BD SUPERSOMES Enzymes; BD Biosciences Discovery Labware (Woburn, Mass.)] were used.
(§7) After a 5-minute pre-incubation, an NADPH regenerating system (NRS) was added to the incubation mixtures to initiate reactions, with a final incubation volume of 0.5 mL. Incubations were continued for 30 minutes, and then terminated, except for those for CYP2C19, which were incubated for 36 minutes prior to termination.
(§8) Matrix controls were performed to determine the background signal from the matrix components (microsomes (10 pmol p450), 01N Tris buffer, NRS, and 1% methanol). […] After a 5-minute pre-incubation, 2% sodium bicarbonate solution was added to the incubation mixtures. Incubation was for 30 minutes at a final volume of 0.5 mL. Matrix and metabolic negative controls were terminated by adding an equal volume of methanol. […] Analysis of samples was subsequent to storage at −70° C.

[3] = biological target: T1, CYP2C9 (Homo sapiens, UniProt P11712); experiment: Induction/inhibition of CYP2C9 activity in cryopreserved human hepatocytes (tolbutamide)
From the text: as §1, §2, §3, §4, §5

[4] = biological target: CYP2E1 (Homo sapiens, UniProt P05181); experiment: Metabolism of metaxalone by expressed recombinant human CYP2E1 at 5 or 20 pmol (Example 4); conditions: for percent turnover / % Turnover Mean / [metaxalone] Mean / % Turnover % / [metaxalone]: 60 min; for % Turnover % / [metaxalone]: single replicates, listed as Metaxalone
[5] = biological target: T1, CYP2C9; experiment: Metabolism of metaxalone by expressed recombinant human CYP2C9 (Example 1); conditions: 30 min
Experimental: as §6, §7, §8

[6] = 0.75 μM metaxalone, 20 pmol cyp

T1 sequence (P11712 whole entry): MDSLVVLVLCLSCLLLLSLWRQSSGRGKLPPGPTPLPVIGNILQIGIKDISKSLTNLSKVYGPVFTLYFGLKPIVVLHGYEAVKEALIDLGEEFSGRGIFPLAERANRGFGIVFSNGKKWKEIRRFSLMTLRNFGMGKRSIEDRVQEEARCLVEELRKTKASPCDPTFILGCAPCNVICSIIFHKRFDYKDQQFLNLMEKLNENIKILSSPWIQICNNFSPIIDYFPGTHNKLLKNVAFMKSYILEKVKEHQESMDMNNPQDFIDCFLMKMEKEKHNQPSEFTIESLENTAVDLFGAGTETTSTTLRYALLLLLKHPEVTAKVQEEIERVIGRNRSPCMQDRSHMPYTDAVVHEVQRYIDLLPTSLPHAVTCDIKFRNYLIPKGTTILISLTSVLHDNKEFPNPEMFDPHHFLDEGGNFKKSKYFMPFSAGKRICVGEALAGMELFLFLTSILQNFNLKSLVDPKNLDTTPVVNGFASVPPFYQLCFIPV
Sequence of CYP2D6 (P10635 whole entry): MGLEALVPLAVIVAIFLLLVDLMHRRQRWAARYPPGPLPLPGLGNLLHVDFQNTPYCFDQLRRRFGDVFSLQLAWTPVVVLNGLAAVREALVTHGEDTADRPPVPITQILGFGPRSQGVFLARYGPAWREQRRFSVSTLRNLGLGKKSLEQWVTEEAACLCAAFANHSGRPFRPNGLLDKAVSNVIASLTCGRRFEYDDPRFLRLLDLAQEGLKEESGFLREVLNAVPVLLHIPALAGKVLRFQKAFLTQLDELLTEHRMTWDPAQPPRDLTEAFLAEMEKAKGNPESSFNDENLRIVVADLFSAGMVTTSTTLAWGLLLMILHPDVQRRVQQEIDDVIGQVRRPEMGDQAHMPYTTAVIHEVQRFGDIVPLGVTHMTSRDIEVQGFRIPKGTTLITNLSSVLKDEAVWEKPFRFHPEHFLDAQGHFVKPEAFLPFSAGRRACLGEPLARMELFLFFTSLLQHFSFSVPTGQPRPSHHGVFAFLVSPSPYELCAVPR
Sequence of CYP2E1 (P05181 whole entry): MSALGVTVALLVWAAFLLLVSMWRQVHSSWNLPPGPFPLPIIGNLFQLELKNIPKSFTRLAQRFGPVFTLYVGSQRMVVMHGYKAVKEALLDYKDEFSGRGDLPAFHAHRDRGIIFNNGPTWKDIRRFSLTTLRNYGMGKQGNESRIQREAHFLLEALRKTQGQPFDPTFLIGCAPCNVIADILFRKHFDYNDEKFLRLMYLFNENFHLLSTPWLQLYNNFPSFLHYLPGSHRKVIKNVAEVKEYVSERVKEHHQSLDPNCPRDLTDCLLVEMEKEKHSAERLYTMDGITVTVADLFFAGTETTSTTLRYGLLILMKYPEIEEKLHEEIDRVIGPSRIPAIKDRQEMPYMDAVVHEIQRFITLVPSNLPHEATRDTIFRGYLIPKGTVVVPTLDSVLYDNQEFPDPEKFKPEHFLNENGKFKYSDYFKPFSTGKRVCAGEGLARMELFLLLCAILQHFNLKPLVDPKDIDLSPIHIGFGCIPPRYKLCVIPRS

Question: `Cc1cc(C)cc(OCC2CNC(=O)O2)c1` (centres unmarked) [metaxalone, 5-[(3,5-dimethylphenoxy)methyl]-2-oxazolidinone] was tested. Which Inducer/Inhibitor ([1]; CYP isozyme 2A6, summary of studies) did it give?
Answer: 0

Question: And the “Percent of VC” value ([1]; Donor 1, Metaxalone 0.4 μM)?
Answer: 100%

Question: And the “Specific Activity Individual” value ([1]; Donor 1, Metaxalone 0.4 μM)?
Answer: <2.68 pmol/min/million cells

Question: And the “Specific Activity Mean ± SD” value ([1]; Donor 1, Metaxalone 0.4 μM)?
Answer: <2.68 ± 0.000 pmol/min/million cells

Question: And the “Percent of VC” value ([1]; Donor 1, Metaxalone 4 μM)?
Answer: 100%

Question: And the “Specific Activity Individual” value ([1]; Donor 1, Metaxalone 4 μM)?
Answer: <2.68 pmol/min/million cells

Question: What about the “Specific Activity Mean ± SD” value ([1]; Donor 1, Metaxalone 4 μM) of the same molecule?
Answer: <2.68 ± 0.000 pmol/min/million cells

Question: And the “Percent of VC” value ([1]; Donor 1, Metaxalone 40 μM)?
Answer: 100%

Question: And the “Specific Activity Individual” value ([1]; Donor 1, Metaxalone 40 μM)?
Answer: <2.68 pmol/min/million cells

Question: What about the “Specific Activity Mean ± SD” value ([1]; Donor 1, Metaxalone 40 μM) of the same molecule?
Answer: <2.68 ± 0.000 pmol/min/million cells

Question: And the “Percent of VC” value ([1]; Donor 2, Metaxalone 0.4 μM)?
Answer: 100%

Question: And the “Specific Activity Individual” value ([1]; Donor 2, Metaxalone 0.4 μM)?
Answer: <2.68 pmol/min/million cells

Question: What about the “Specific Activity Mean ± SD” value ([1]; Donor 2, Metaxalone 0.4 μM) of the same molecule?
Answer: <2.68 ± 0.000 pmol/min/million cells

Question: And the “Percent of VC” value ([1]; Donor 2, Metaxalone 4 μM)?
Answer: 100%

Question: And the “Specific Activity Individual” value ([1]; Donor 2, Metaxalone 4 μM)?
Answer: <2.68 pmol/min/million cells

Question: And the “Specific Activity Mean ± SD” value ([1]; Donor 2, Metaxalone 4 μM)?
Answer: <2.68 ± 0.000 pmol/min/million cells

Question: And the “Percent of VC” value ([1]; Donor 2, Metaxalone 40 μM)?
Answer: 100%

Question: And the “Specific Activity Individual” value ([1]; Donor 2, Metaxalone 40 μM)?
Answer: <2.68 pmol/min/million cells

Question: What about the “Specific Activity Mean ± SD” value ([1]; Donor 2, Metaxalone 40 μM) of the same molecule?
Answer: <2.68 ± 0.000 pmol/min/million cells

Question: What about the “Percent of VC” value ([1]; Donor 3, Metaxalone 0.4 μM) of the same molecule?
Answer: 100%

Question: And the “Specific Activity Individual” value ([1]; Donor 3, Metaxalone 0.4 μM)?
Answer: <2.68 pmol/min/million cells

Question: What about the “Specific Activity Mean ± SD” value ([1]; Donor 3, Metaxalone 0.4 μM) of the same molecule?
Answer: <2.68 ± 0.000 pmol/min/million cells

Question: And the “Percent of VC” value ([1]; Donor 3, Metaxalone 4 μM)?
Answer: 100%

Question: And the “Specific Activity Individual” value ([1]; Donor 3, Metaxalone 4 μM)?
Answer: <2.68 pmol/min/million cells

Question: What about the “Specific Activity Mean ± SD” value ([1]; Donor 3, Metaxalone 4 μM) of the same molecule?
Answer: <2.68 ± 0.000 pmol/min/million cells

Question: And the “Percent of VC” value ([1]; Donor 3, Metaxalone 40 μM)?
Answer: 100%

Question: And the “Specific Activity Individual” value ([1]; Donor 3, Metaxalone 40 μM)?
Answer: <2.68 pmol/min/million cells

Question: And the “Specific Activity Mean ± SD” value ([1]; Donor 3, Metaxalone 40 μM)?
Answer: <2.68 ± 0.000 pmol/min/million cells

Question: And the “effects on CYP activity” value ([1]; any of the tested concentrations (0.4, 4.0, 40 μM))?
Answer: no significant effects

Question: And the “Metaxalone Present Adjusted Individual” value ([2]; metaxalone 0.5 μM)?
Answer: 0.374 µM and 0.297 µM and 0.286 µM

Question: And the “Metaxalone Present Adjusted Mean ± SD” value ([2]; metaxalone 0.5 μM)?
Answer: 0.319 ± 0.0477 µM

Question: What about the “Metaxalone Present Raw” value ([2]; metaxalone 0.5 μM) of the same molecule?
Answer: 0.1868 µM and 0.1486 µM and 0.1431 µM

Question: What about the “Percent of Metabolic Negative Control Individual” value ([2]; metaxalone 0.5 μM) of the same molecule?
Answer: 128% and 102% and 98.0%

Question: What about the “Percent of Metabolic Negative Control Mean ± SD” value ([2]; metaxalone 0.5 μM) of the same molecule?
Answer: 109 ± 16.3%

Question: And the “Metaxalone Present Adjusted Individual” value ([2]; metaxalone 2.5 μM)?
Answer: 1.52 µM and 1.54 µM and 1.53 µM

Question: What about the “Metaxalone Present Adjusted Mean ± SD” value ([2]; metaxalone 2.5 μM) of the same molecule?
Answer: 1.53 ± 0.0111 µM

Question: And the “Metaxalone Present Raw” value ([2]; metaxalone 2.5 μM)?
Answer: 0.7583 µM and 0.7685 µM and 0.767 µM

Question: And the “Percent of Metabolic Negative Control Individual” value ([2]; metaxalone 2.5 μM)?
Answer: 96.9% and 98.2% and 98.0%

Question: And the “Percent of Metabolic Negative Control Mean ± SD” value ([2]; metaxalone 2.5 μM)?
Answer: 97.7 ± 0.707%

Question: What about the “Metaxalone Present Adjusted Individual” value ([2]; metaxalone 25 μM) of the same molecule?
Answer: 19.1 µM and 19.7 µM and 18.9 µM

Question: And the “Metaxalone Present Adjusted Mean ± SD” value ([2]; metaxalone 25 μM)?
Answer: 19.2 ± 0.436 µM

Question: What about the “Metaxalone Present Raw” value ([2]; metaxalone 25 μM) of the same molecule?
Answer: 9.526 µM and 9.845 µM and 9.429 µM

Question: And the “Percent of Metabolic Negative Control Individual” value ([2]; metaxalone 25 μM)?
Answer: 99.2% and 103% and 98.2%

Question: What about the “Percent of Metabolic Negative Control Mean ± SD” value ([2]; metaxalone 25 μM) of the same molecule?
Answer: 99.9 ± 2.27%

Question: And the Inducer/Inhibitor [3]?
Answer: −

Question: And the “Percent of VC” value ([3]; Donor 1, Metaxalone 0.4 μM)?
Answer: 108%

Question: What about the “Percent of VC” value ([3]; Donor 1, Metaxalone 4 μM) of the same molecule?
Answer: 100%

Question: And the “Percent of VC” value ([3]; Donor 1, Metaxalone 40 μM)?
Answer: <73.2%

Question: What about the “Percent of VC” value ([3]; Donor 2, Metaxalone 4 μM) of the same molecule?
Answer: 92.9%

Question: And the “Percent of VC” value ([3]; Donor 2, Metaxalone 40 μM)?
Answer: 60.4%

Question: And the “Percent of VC” value ([3]; Donor 3, Metaxalone 0.4 μM)?
Answer: 111%

Question: And the “Percent of VC” value ([3]; Donor 3, Metaxalone 40 μM)?
Answer: 78.4%

Question: And the “Specific Activity Mean ± SD” value ([3]; Donor 3, Metaxalone 40 μM)?
Answer: 0.127 ± 0.005 pmol/min/million cells

Question: What about the “Specific Activity Mean ± SD” value ([3]; human, 48 h, 0.4 µM) of the same molecule?
Answer: 0.179 ± 0.0111 pmol/min/million cells

Question: And the “Specific Activity Mean ± SD” value ([3]; human, 48 h, 4 µM)?
Answer: 0.167 ± 0.0210 pmol/min/million cells

Question: What about the “effect on CYP2C9 activity” value ([3]; human, hepatocytes, 48 h, 40 μM) of the same molecule?
Answer: significantly reduced CYP2C9 activity

Question: And the percent turnover ([4]; 0.75 μM metaxalone, 5 pmol CYP450)?
Answer: 11.3%

Question: What about the “% Turnover Mean” value ([4]; 0.75 μM metaxalone, 5 pmol cyp) of the same molecule?
Answer: 11.3%

Question: What about the “[metaxalone] Mean” value ([4]; 0.75 μM metaxalone, 5 pmol cyp) of the same molecule?
Answer: 0.631 µM

Question: And the “% Turnover %” value ([4]; 0.75 μM metaxalone, 5 pmol cyp)?
Answer: 2.7% and 15.1% and 16.3%

Question: And the “[metaxalone]” value ([4]; 0.75 μM metaxalone, 5 pmol cyp)?
Answer: 0.693 µM and 0.604 µM and 0.596 µM

Question: What about the percent turnover ([4]; 0.75 μM metaxalone, 20 pmol CYP450) of the same molecule?
Answer: 16.2%

Question: What about the “% Turnover Mean” value [4, 6] of the same molecule?
Answer: 16.2%

Question: What about the “[metaxalone] Mean” value [4, 6] of the same molecule?
Answer: 0.597 µM

Question: And the “% Turnover %” value [4, 6]?
Answer: 14.6% and 12.6% and 21.3%

Question: What about the “[metaxalone]” value [4, 6] of the same molecule?
Answer: 0.608 µM and 0.622 µM and 0.560 µM

Question: And the percent turnover ([4]; 7.5 μM metaxalone, 5 pmol CYP450)?
Answer: 18.4%

Question: What about the “% Turnover Mean” value ([4]; 7.5 μM metaxalone, 5 pmol cyp) of the same molecule?
Answer: 18.4%

Question: And the “[metaxalone] Mean” value ([4]; 7.5 μM metaxalone, 5 pmol cyp)?
Answer: 6.29 µM

Question: And the “% Turnover %” value ([4]; 7.5 μM metaxalone, 5 pmol cyp)?
Answer: 16.9% and 16.7% and 21.7%

Question: What about the “[metaxalone]” value ([4]; 7.5 μM metaxalone, 5 pmol cyp) of the same molecule?
Answer: 6.41 µM and 6.42 µM and 6.04 µM

Question: What about the percent turnover ([4]; 7.5 μM metaxalone, 20 pmol CYP450) of the same molecule?
Answer: 17.2%

Question: And the “% Turnover Mean” value ([4]; 7.5 μM metaxalone, 20 pmol cyp)?
Answer: 17.2%

Question: What about the “[metaxalone] Mean” value ([4]; 7.5 μM metaxalone, 20 pmol cyp) of the same molecule?
Answer: 6.39 µM

Question: What about the “% Turnover %” value ([4]; 7.5 μM metaxalone, 20 pmol cyp) of the same molecule?
Answer: 18.0% and 19.0% and 14.5%

Question: And the “[metaxalone]” value ([4]; 7.5 μM metaxalone, 20 pmol cyp)?
Answer: 6.33 µM and 6.25 µM and 6.60 µM

Question: And the Substrate ([4]; CYP isozyme 2E1, summary of studies)?
Answer: +

Question: And the “Metaxalone Present Adjusted Individual” value ([5]; metaxalone 0.5 μM)?
Answer: 0.360 µM and 0.348 µM

Question: And the “Metaxalone Present Adjusted Mean ± SD” value ([5]; metaxalone 0.5 μM)?
Answer: 0.355 ± 0.00608 µM

Question: And the “Metaxalone Present Raw” value ([5]; metaxalone 0.5 μM)?
Answer: 0.18 µM and 0.1778 µM and 0.174 µM

Question: What about the “Percent of Metabolic Negative Control Individual” value ([5]; metaxalone 0.5 μM) of the same molecule?
Answer: 103% and 102%

Question: And the “Percent of Metabolic Negative Control Mean ± SD” value ([5]; metaxalone 0.5 μM)?
Answer: 102 ± 1.75%

Question: And the “Metaxalone Present Adjusted Individual” value ([5]; metaxalone 2.5 μM)?
Answer: 1.94 µM and 1.93 µM and 1.89 µM

Question: And the “Metaxalone Present Adjusted Mean ± SD” value ([5]; metaxalone 2.5 μM)?
Answer: 1.92 ± 0.0246 µM

Question: What about the “Metaxalone Present Raw” value ([5]; metaxalone 2.5 μM) of the same molecule?
Answer: 0.9684 µM and 0.9659 µM and 0.946 µM

Question: And the “Percent of Metabolic Negative Control Individual” value ([5]; metaxalone 2.5 μM)?
Answer: 101% and 100%

Question: What about the “Percent of Metabolic Negative Control Mean ± SD” value ([5]; metaxalone 2.5 μM) of the same molecule?
Answer: 99.7 ± 1.28%

Question: What about the “Metaxalone Present Adjusted Individual” value ([5]; metaxalone 25 μM) of the same molecule?
Answer: 21.3 µM and 21.6 µM and 21.5 µM

Question: And the “Metaxalone Present Adjusted Mean ± SD” value ([5]; metaxalone 25 μM)?
Answer: 21.5 ± 0.144 µM

Question: And the “Metaxalone Present Raw” value ([5]; metaxalone 25 μM)?
Answer: 10.66 µM and 10.8 µM and 10.73 µM

Question: And the “Percent of Metabolic Negative Control Individual” value ([5]; metaxalone 25 μM)?
Answer: 100% and 102% and 101%

Question: What about the “Percent of Metabolic Negative Control Mean ± SD” value ([5]; metaxalone 25 μM) of the same molecule?
Answer: 101 ± 0.675%
